Data: patent US10604526B2, “Chemokine receptor modulators and uses thereof” (RAPT THERAPEUTICS, INC., priority 2016, dated 2020)

Target: T1, hCCR4 (Homo sapiens, UniProt P51679)
T1 sequence (P51679 1-360): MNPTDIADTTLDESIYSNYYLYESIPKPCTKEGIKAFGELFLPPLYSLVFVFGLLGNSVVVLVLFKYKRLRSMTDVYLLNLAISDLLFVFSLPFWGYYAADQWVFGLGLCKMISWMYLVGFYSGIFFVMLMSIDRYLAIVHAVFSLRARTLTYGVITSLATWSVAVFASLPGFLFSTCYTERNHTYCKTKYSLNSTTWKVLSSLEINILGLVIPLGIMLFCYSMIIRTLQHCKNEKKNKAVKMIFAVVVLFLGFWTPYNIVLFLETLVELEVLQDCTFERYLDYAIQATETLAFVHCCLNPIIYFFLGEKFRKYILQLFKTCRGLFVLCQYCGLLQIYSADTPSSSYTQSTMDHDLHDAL
Assay: Calcium flux assay
Assay type: cell-based
Conditions: Chem5-hCCR4 cells, CCL22 at EC80 of 1.5 nM, FLIPR Calcium 6 dye; read-out: Potency (IC50)
Protocol: Calcium Flux Assay. Compounds were evaluated in a calcium flux assay substantially performed as follows. Chem5-hCCR4 cells (EMD Millipore, Hayward, Calif.; HTS009C) were cultured under standard conditions and frozen in aliquots of 10×10^6 cells/mL. The day prior to compound testing, a vial was rapidly thawed and pipetted into 20 mL media (DMEM+10% FBS+1% Pen-Strep+1% L-glutamine). Cells were harvested by centrifugation and re-suspended in fresh culture medium. 25 μL of cell suspension was seeded into 384-well plates (Corning, Tewksbury, Mass.; CellBind with black wall/clear bottom). The plates were centrifuged at 300 g for 10 seconds and incubated overnight at 37° C. and 5% CO2. The day of compound testing, media was removed from the plates and 25 μL serum free media was added to each well. Plates were returned to the incubator for 2 h. 25 μL assay buffer (Hank's balanced salt solution+20 mM HEPES pH 7.4) containing FLIPR Calcium 6 dye (Molecular Devices, Sunnyvale, Calif.; # R8191) and probenecid (2.5 mM) was added to each well and incubated at 37° C. and 5% CO2 for 2 h. Compounds in DMSO were added to the plates using an HP D300e digital dispenser, and all wells were normalized to contain 0.25 μL (0.5%) DMSO. Plates were incubated for 1 hour at 37° C. and 5% CO2. CCL22 (Peprotech; Rockyhill, N.J.) was diluted in assay buffer containing 0.1% BSA to 7.5 nM (corresponding to 5×EC80 of 1.5 nM).
Assay plates and working solution of CCL22 were transferred to the FlexStation plate reader (Molecular Devices) at 37° C. for 5 min of equilibration. Fluorescence recordings at 485 excitation/525 emission were performed at 2.5 second intervals. At t=16 seconds, 12.5 μL of CCL22 solution was added to each well and reads continued for 30 seconds at 2.5 second intervals. The minimum fluorescence (Fmin) was calculated by averaging the reads prior to ligand addition and the change in fluorescence (ΔF) was calculated by subtracting the Fmin from the average of the reads following ligand addition. The response ΔF/Fmin was plotted as a function of the compound concentration and the IC50 values were determined by non-linear regression analysis using a 4-parameter fit in either PRISM software (GraphPad; La Jolla, Calif.) or Dotmatics Browser.

Row | Compound | IC50
1 | 1-((R)-1-(2,4-Dichlorophenyl)ethyl)-6-(3-((S)-1-(2-hydroxyethyl)piperidin-3-yl)azetidin-1-yl)-1H-pyrazolo[3,4-b]pyrazine-3-carbonitrile and 1-((S)-1-(2,4-dichlorophenyl)ethyl)-6-(3-((S)-1-(2-hydroxyethyl)piperidin-3-yl)azetidin-1-yl)-1H-pyrazolo[3,4-b]pyrazine-3-carbonitrile [Example 34] | < 100 nM
2 | 1-((R)-1-(2,4-Dichlorophenyl)ethyl)-6-(3-((S)-1-(2-hydroxyethyl)piperidin-3-yl)azetidin-1-yl)-1H-pyrazolo[3,4-b]pyrazine-3-carboxamide and 1-((S)-1-(2,4-dichlorophenyl)ethyl)-6-(3-((S)-1-(2-hydroxyethyl)piperidin-3-yl)azetidin-1-yl)-1H-pyrazolo[3,4-b]pyrazine-3-carboxamide [Example 41] | < 100 nM
3 | 1-((R)-1-(2,4-dichlorophenyl)ethyl)-6-(3-((S)-1-((R)-4-hydroxybutan-2-yl)piperidin-3-yl)azetidin-1-yl)-1H-pyrazolo[3,4-b]pyrazine-3-carbonitrile and 1-((R)-1-(2,4-dichlorophenyl)ethyl)-6-(3-((S)-1-((S)-4-hydroxybutan-2-yl)piperidin-3-yl)azetidin-1-yl)-1H-pyrazolo[3,4-b]pyrazine-3-carbonitrile [Example 83] | 100 to 500 nM
4 | 4-((S)-3-(1-(1-((R)-1-(2,4-Dichlorophenyl)ethyl)-3-methyl-1H-pyrazolo[3,4-b]pyrazin-6-yl)azetidin-3-yl)piperidin-1-yl)butanoic acid and 4-((R)-3-(1-(1-((R)-1-(2,4-dichlorophenyl)ethyl)-3-methyl-1H-pyrazolo[3,4-b]pyrazin-6-yl)azetidin-3-yl)piperidin-1-yl)butanoic acid [Example 17] | < 100 nM
5 | 4-((S)-3-(1-(1-((R)-1-(2,4-Dichlorophenyl)ethyl)-3-methyl-1H-pyrazolo[3,4-d]pyrimidin-6-yl)azetidin-3-yl)piperidin-1-yl)butanoic acid and 4-((R)-3-(1-(1-((R)-1-(2,4-dichlorophenyl)ethyl)-3-methyl-1H-pyrazolo[3,4-d]pyrimidin-6-yl)azetidin-3-yl)piperidin-1-yl)butanoic acid [Example 20] | 100 to 500 nM
6 | Cc1nn([C@H](C)c2ccc(Cl)cc2Cl)c2nc(N3CC(C4CCCN(C5CC(C(=O)O)C5)C4)C3)cnc12 (mixture of isomers) [Example 16] | > 500 nM

Results, then the compound that gave them:

Row | IC50 | Compound
7 | < 100 nM | 1-((R)-1-(2,4-dichlorophenyl)ethyl)-6-(3-((R)-1-((R)-4-hydroxybutan-2-yl)piperidin-3-yl)azetidin-1-yl)-1H-pyrazolo[3,4-b]pyrazine-3-carbonitrile and 1-((R)-1-(2,4-dichlorophenyl)ethyl)-6-(3-((R)-1-((S)-4-hydroxybutan-2-yl)piperidin-3-yl)azetidin-1-yl)-1H-pyrazolo[3,4-b]pyrazine-3-carbonitrile [Example 82]
8 | > 500 nM | CCOC(=O)CN1CCCC(C2CN(c3cnc4c(C)nn([C@H](C)c5ccc(Cl)cc5Cl)c4n3)C2)C1 (mixture of isomers) [Example 1, Ethyl 2-((R)-3-(1-(1-((R)-1-(2,4-dichlorophenyl)ethyl)-3-methyl-1H-pyrazolo[3,4-b]pyrazin-6-yl)azetidin-3-yl)piperidin-1-yl)acetate 2,2,2-trifluoroacetate and 2,2,2-trifluoroacetate ethyl 2-((S)-3-(1-(1-((R)-1-(2,4-dichlorophenyl)ethyl)-3-methyl-1H-pyrazolo[3,4-b]pyrazin-6-yl)azetidin-3-yl)piperidin-1-yl)acetate]
9 | 100 to 500 nM | Cc1nn([C@H](C)c2ccc(Cl)cc2Cl)c2nc(N3CC(C4CCCN(CCS(N)(=O)=O)C4)C3)cnc12 (mixture of isomers) [Example 4, 2-((R)-3-(1-(1-((R)-1-(2,4-dichlorophenyl)ethyl)-3-methyl-1H-pyrazolo[3,4-b]pyrazin-6-yl)azetidin-3-yl)piperidin-1-yl)ethane-1-sulfonamide and 2-((S)-3-(1-(1-((R)-1-(2,4-dichlorophenyl)ethyl)-3-methyl-1H-pyrazolo[3,4-b]pyrazin-6-yl)azetidin-3-yl)piperidin-1-yl)ethane-1-sulfonamide]
10 | 100 to 500 nM | Cc1nn([C@H](C)c2ccc(Cl)cc2Cl)c2nc(N3CC(C4CCCN(CCC(=O)O)C4)C3)cnc12 (mixture of isomers) [Example 7, 3-((S)-3-(1-(1-((R)-1-(2,4-Dichlorophenyl)ethyl)-3-methyl-1H-pyrazolo[3,4-b]pyrazin-6-yl)azetidin-3-yl)piperidin-1-yl)propanoic acid and 3-((R)-3-(1-(1-((R)-1-(2,4-dichlorophenyl)ethyl)-3-methyl-1H-pyrazolo[3,4-b]pyrazin-6-yl)azetidin-3-yl)piperidin-1-yl)propanoic acid]
11 | < 100 nM | C[C@H](c1ccc(Cl)cc1Cl)n1nc(C#N)c2ncc(N3CC(C4CCCN(CCS(C)(=O)=O)C4)C3)nc21 (mixture of isomers) [Example 23, 1-((R)-1-(2,4-Dichlorophenyl)ethyl)-6-(3-((S)-1-(2-(methylsulfonyl)ethyl)piperidin-3-yl)azetidin-1-yl)-1H-pyrazolo[3,4-b]pyrazine-3-carbonitrile and 1-((R)-1-(2,4-dichlorophenyl)ethyl)-6-(3-((R)-1-(2-(methylsulfonyl)ethyl)piperidin-3-yl)azetidin-1-yl)-1H-pyrazolo[3,4-b]pyrazine-3-carbonitrile]
12 | < 100 nM | C[C@H](c1ccc(Cl)cc1Cl)n1nc(C#N)c2ncc(N3CC(C4CCCN(CCC(N)=O)C4)C3)nc21 (mixture of isomers) [Example 24, 3-((S)-3-(1-(3-Cyano-1-((R)-1-(2,4-dichlorophenyl)ethyl)-1H-pyrazolo[3,4-b]pyrazin-6-yl)azetidin-3-yl)piperidin-1-yl)propanamide and 3-((R)-3-(1-(3-cyano-1-((R)-1-(2,4-dichlorophenyl)ethyl)-1H-pyrazolo[3,4-b]pyrazin-6-yl)azetidin-3-yl)piperidin-1-yl)propanamide]
13 | < 100 nM | CC(O)CN1CCCC(C2CN(c3cnc4c(C#N)nn([C@H](C)c5ccc(Cl)cc5Cl)c4n3)C2)C1 (mixture of isomers) [Example 27]
14 | < 100 nM | Cc1nn([C@H](C)c2ccc(Cl)cc2Cl)c2nc(N3CC(C4CCCN(CCO)C4)C3)ncc12 (mixture of isomers) [Example 37, 2-((S)-3-(1-(1-((R)-1-(2,4-Dichlorophenyl)ethyl)-3-methyl-1H-pyrazolo[3,4-d]pyrimidin-6-yl)azetidin-3-yl)piperidin-1-yl)ethan-1-ol and 2-((R)-3-(1-(1-((R)-1-(2,4-dichlorophenyl)ethyl)-3-methyl-1H-pyrazolo[3,4-d]pyrimidin-6-yl)azetidin-3-yl)piperidin-1-yl)ethan-1-ol]
15 | < 100 nM | Cc1nn([C@H](C)c2ccc(Cl)cc2Cl)c2nc(N3CC(C4CCCN(CCO)C4)C3)cnc12 (mixture of isomers) [Example 40, 2-((S)-3-(1-(1-((R)-1-(2,4-Dichlorophenyl)ethyl)-3-methyl-1H-pyrazolo[3,4-b]pyrazin-6-yl)azetidin-3-yl)piperidin-1-yl)ethan-1-ol and 2-((R)-3-(1-(1-((R)-1-(2,4-dichlorophenyl)ethyl)-3-methyl-1H-pyrazolo[3,4-b]pyrazin-6-yl)azetidin-3-yl)piperidin-1-yl)ethan-1-ol]
